Consider 14 compounds from US20200085828A1, “PHOSPHODIESTERASE INHIBITORS AND METHODS OF MICROBIAL TREATMENT” (Mavupharma, Inc., priority 2016, published 2020).

Some results are limits rather than exact numbers.

As a reminder, the Ki is the dissociation constant of the complex between target and ligand, obtained from inhibition or displacement. Broadly, the inhibition is the drop in the measured response relative to a control, in per cent.

Experiment [1] has as its system cGAMP activated THP-1 cells. Description: PDE inhibitor library screen on cGAMP activated THP-1 cells, IFNβ ELISA. Type of experiment: cell-based, human. Particulars: 10 μM compound, suboptimal 2′,3′-cGAMP, 24 hours. As for the experimental part:
THP-1 Cell Activation and Screening of Test Compounds: • (a) THP-1 cells from bulk cultures were counted and suspended in RPMI 1640, 20% FBS, 2.5 mM L-alanyl-L-glutamine at a concentration of 5.5×10^6 cells/mL. The THP-1 cells were subsequently seeded into 96 well round bottom plates—volume of 180 μL/well (1×10^6 cells per well), and the plate was incubated for 1 hour at 37° C., 5% CO2. • (b) Test compounds comprising known phosphodiesterase inhibitors (PDEs), were screened in triplicate (N1, N2, N3) on THP-1 cells. For compound screening, test compounds were assayed at a final concentration of 10 μM. A 200 μM (0.2 mM) working solution of each compound was prepared by diluting 10 mM DMSO stock solutions of each compound in media at a dilution of 50:1 (1640, 20% FBS, 2.5 mM L-alanyl-L-glutamine). […]
(i) Cell culture supernatants were harvested by centrifuging the plates at 200×g for 10 minutes. Cell culture supernatants were then transferred to a clean plate and stored at −80° C. until ready to analyze for IFNβ levels. • (j) IFNβ levels in cell culture supernatants were determined by ELISA according to the manufacturer's instructions (VeriKine Human IFNβ Assay). • (k) The interpolated data was normalized to vehicle control, or unstimulated control, and analyzed.
Background: In an ELISA, binding on a coated surface is turned into a signal by an enzyme label.

Experiment [2] deals with T1, human recombinant ENPP1 (Homo sapiens, UniProt P22413).
T1 sequence (P22413 1-925): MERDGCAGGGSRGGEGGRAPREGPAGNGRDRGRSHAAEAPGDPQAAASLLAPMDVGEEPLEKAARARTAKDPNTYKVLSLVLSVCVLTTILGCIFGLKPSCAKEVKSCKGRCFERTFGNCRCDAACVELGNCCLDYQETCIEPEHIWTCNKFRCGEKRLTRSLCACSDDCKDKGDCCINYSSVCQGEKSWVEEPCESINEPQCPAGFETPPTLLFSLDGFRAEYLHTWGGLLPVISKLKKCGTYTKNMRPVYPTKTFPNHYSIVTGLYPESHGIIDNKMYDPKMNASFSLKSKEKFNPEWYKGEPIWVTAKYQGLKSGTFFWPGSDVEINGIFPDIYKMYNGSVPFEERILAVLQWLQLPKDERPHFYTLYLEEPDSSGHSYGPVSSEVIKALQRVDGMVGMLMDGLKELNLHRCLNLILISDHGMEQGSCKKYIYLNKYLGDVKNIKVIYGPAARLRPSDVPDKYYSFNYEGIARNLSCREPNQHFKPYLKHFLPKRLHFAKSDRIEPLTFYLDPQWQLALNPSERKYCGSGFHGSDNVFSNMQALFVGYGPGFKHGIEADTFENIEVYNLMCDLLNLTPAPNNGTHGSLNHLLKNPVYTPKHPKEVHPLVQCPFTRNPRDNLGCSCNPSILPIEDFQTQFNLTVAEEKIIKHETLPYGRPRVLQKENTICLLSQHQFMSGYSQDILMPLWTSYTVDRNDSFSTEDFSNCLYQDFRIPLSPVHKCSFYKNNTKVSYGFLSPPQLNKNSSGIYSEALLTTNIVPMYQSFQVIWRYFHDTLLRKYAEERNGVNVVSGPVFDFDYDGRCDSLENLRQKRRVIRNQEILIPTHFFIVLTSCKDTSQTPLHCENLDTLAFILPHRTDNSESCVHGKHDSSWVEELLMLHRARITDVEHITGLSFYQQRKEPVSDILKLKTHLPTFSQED
Description: ENPP1 inhibition with 2′,3′-cGAMP substrate (AMP-Glo assay). Type of experiment: biochemical. Particulars: for Ki: 20 μM 2′3′cGAMP, Ki from IC50 by Cheng-Prusoff, Km 15 μM; for inhibition at 1 µM: at 1 μM compound; for inhibition at 1 µM / inhibition at 10 µM: read-out: Inhibition of ENPP1 with cGAMP as the Substrate; for inhibition at 10 µM: at 10 μM compound. The procedure: The AMP-Glo™ Assay Kit contains two reagents that are added sequentially. The first converts the 5′-AMP produced in the reaction to 5′ADP. The second converts the 5′-ADP to 5′ATP and reacts the 5′-ATP with the luciferase/luciferin pair to produce the luminescence signal. […] Inhibitors are added at final concentrations ranging between 10 μM and 30 pM depending on the compound. Duplicate wells are run at each inhibitor concentration. The final assay volume is 18 μL and human recombinant ENPP1 is present at 5 ng/well. The assay is initiated by the addition of substrate (20 μM 2′3′cGAMP final concentration), and incubated for 30 minutes at 37° C. To stop the reaction, 12 μl of AMP-Glo reagent I is added and the plate is incubated for 60 minutes at room temperature. 25 μl of AMP-detection reagent is then added and the wells are again incubated for 60 minutes at room temperature. The luminescence signal is then measured using a plate-reading luminometer. Each assay plate also includes wells with no enzyme added (MIN OD) and wells with no inhibitor added (MAX OD). The percent inhibition of ENPP1 for each sample is then calculated as: […]
IC50 values of compounds were calculated by entering the percent inhibition values into a sigmoidal variable slope nonlinear regression model in GraphPad Prism® software. IC50 values were converted to Ki values using the Cheng-Prusoff equation2 where the Km was 15 μM, based on internal determinations.

The target of experiment [3] is T1, human recombinant ENPP1. Description: ENPP1 inhibition with AMP-pNP (ATP analog) substrate, absorbance at 405 nm. Type of experiment: biochemical. Particulars: 300 μM AMP-pNP; Ki from IC50 by Cheng-Prusoff, Km 151 μM. The procedure:
The ENPP1 assay with AMP-pNP substrate is conducted in a buffer containing 50 mM Tris-HCl (pH 8.5)/250 mM NaCl/0.5 mM CaCl2/1 μM ZnCl2/0.1% DMSO. Inhibitors are added at final concentrations ranging between 10 μM and 30 pM depending on the compound. Duplicate wells are run at each inhibitor concentration. The final assay volume is 40 μL and human recombinant ENPP1 is present at 60 ng/well. The assay is initiated by the addition of substrate (300 μM AMP-pNP final concentration), and incubated for 20 minutes at 37° C. […] Each assay plate also includes wells with no enzyme added (MIN OD) and wells with no inhibitor added (MAX OD). The percent inhibition of ENPP1 for each sample is then calculated as: […]
IC50 values of compounds were calculated by entering the percent inhibition values into a sigmoidal variable slope nonlinear regression model in GraphPad Prism® software.

With `O=c1cc(-c2ccc(O)c(O)c2)oc2cc(O)cc(O)c12` [Compound 1], the “augmentation of cGAMP mediated IFNβ production” value in experiment [1] was “augmentation of cGAMP mediated IFNβ production”. In the case of `COc1cc2nccc(Oc3ccc(NS(=O)(=O)c4ccccc4)cc3)c2cc1OC` [Compound 25], at human recombinant ENPP1 [2], the inhibition constant (Ki) worked out at 44 nM. Regarding `CCN(C)S(=O)(=O)NCCC1CCN(c2ncnc3cc(OC)c(OC)cc23)CC1` [Compound 12], the Ki at human recombinant ENPP1 [2] worked out at 336 nM. `COc1ccc(NC(=O)CSc2nc3c(N)ncnc3[nH]2)cc1OC` [Compound 2]: at human recombinant ENPP1 [2], the inhibition at 1 µM amounted to 99% and the inhibition at 10 µM was 99%. With `COc1cc2ncnc(N3CCC(CCNS(N)(=O)=O)CC3)c2cc1OC` [Compound 3], at human recombinant ENPP1 [2], the inhibition at 1 µM is 99% and the inhibition at 10 µM amounted to 99%. The “augmentation of cGAMP mediated IFNβ production” value in experiment [1] is “augmentation of cGAMP mediated IFNβ production”.

With `COc1cc2ncnc(-c3ccc4c(c3)CN(S(N)(=O)=O)CC4)c2cc1OC` [Compound 21], the Ki came out at 65.2 nM at human recombinant ENPP1 [3] and 1.8 nM on human recombinant ENPP1 [2]. For the compound `COc1ccc(CC(=O)CCC2=Nc3c(N)ccnc3C2)cc1OC` [Compound 4], at human recombinant ENPP1 [2] (Ki (AMP-pNP)/Ki (2′3′-cGAMP)), the “Substrate Selectivity Ki Ratio AMP-pNP/2′3′cGAMP” value was more than 37500 and the “selectivity for inhibition of cGAMP over AMP-pNP hydrolysis by ENPP1” value is listed as > 37,500 fold.

Regarding `COc1cc2ncnc(N3CCC(CCN)CC3)c2cc1OC` [Compound 5], on human recombinant ENPP1 [2], the Ki turned out to be 46.7 nM. On to `COc1cc2ncnc(N3CCC4(CC3)CN(S(N)(=O)=O)C4)c2cc1OC` [Compound 24], for which, at human recombinant ENPP1 [2] (Ki (AMP-pNP)/Ki (2′3′-cGAMP)), the “Substrate Selectivity Ki Ratio AMP-pNP/2′3′cGAMP” value amounted to 18.7. Consider `COc1cc2nccc(Nc3ccc(NS(=O)(=O)c4ccccc4)cc3)c2cc1OC` [Compound 14], for which the Ki on human recombinant ENPP1 [3] came out at 1830 nM; at human recombinant ENPP1 [2], 29.1 nM. Turning to `COc1cc2ncn(-c3ccc(CNS(N)(=O)=O)cc3)c2cc1OC` [Compound 16], the Ki on human recombinant ENPP1 [3] worked out at 1460 nM; at human recombinant ENPP1 [2], 27.1 nM. For the compound `COc1cc2nc(-c3cccnc3)nc(N3CCC(CCNS(C)(=O)=O)CC3)c2cc1OC` [Compound 23], at human recombinant ENPP1 [2] (Ki (AMP-pNP)/Ki (2′3′-cGAMP)), the “Substrate Selectivity Ki Ratio AMP-pNP/2′3′cGAMP” value is reported as more than 23.9. On to `COc1cc2nccc(Oc3ccc(CS(N)(=O)=O)cc3)c2cc1OC` [Compound 6], for which the “Substrate Selectivity Ki Ratio AMP-pNP/2′3′cGAMP” value on human recombinant ENPP1 [2] (Ki (AMP-pNP)/Ki (2′3′-cGAMP)) is listed as more than 325. On to `Cn1cnc2cccc(N3CCC(CCCS(C)(=O)=O)CC3)c21` [Compound 9], for which, on human recombinant ENPP1 [2] (Ki (AMP-pNP)/Ki (2′3′-cGAMP)), the “Substrate Selectivity Ki Ratio AMP-pNP/2′3′cGAMP” value was more than 128.
